According to patent publication US10590440B2, “Process for producing a fermentation product from a lignocellulose-containing material” (CysBio ApS, priority 2014, dated 2020):

Key:
Assay type in all cases: cell-based, Escherichia coli
[1] = test system: E. coli BL21(DE3)pLysS carrying SULT1A1; assay: Cell density of E. coli in media with ferulic acid, strain carrying SULT1A1 Homo sapiens (Example 4); conditions: after 17 h at 37° C., inoculated at OD600 0.002
Excerpt: SULT1A1 from Homo sapiens (SEQ ID NO: 2) mentioned in example 1 was cloned into the plasmid vector pET-28a(+) (Novagen, Life Technologies) as follows: The gene encoding the SULT1A1 was codon optimized for expression in E. coli by GeneArt (LifeTechnologies) and synthesized such that the start codon is an Ncol restriction site. The stop codon is immediately followed by a SalI site. The Ncol and SalI fragment of this DNA piece was cloned into the pET-28a(+) digested with Ncol and SalI using T4 DNA ligase. The resulting plasmid was transformed into E. coli BL21(DE3)pLysS (Life Technologies) selecting for resistance to […] kanamycin.
(§1) The two strains BL21(DE3)pLysS and the strain carrying SULT1A1 were grown in M9 minimal media with 0.2% glucose, appropriate antibiotics for maintenance of the plasmids, and 0.1 mM IPTG for induction of expression of the sulfotransferase. We added ferulic acid to final concentration of either 2.5 mM or 5 mM (ferulic acid was dissolved in ethanol, which reached a final concentration of 2% in the media). Ferulic acid is a growth inhibitory compound found in lignocellulotic biomass hydrolysate. Cells were inoculated into the medium to an optical density at 600 nm (OD600) of 0.002 in a 1 cm light path. […] Presence of an aryl sulfotransferase removes the inhibition caused by ferulic acid.

E. coli BL21(DE3)pLysS = assay: Cell density of E. coli in media with ferulic acid, strain without SULT1A1 (Example 4); conditions: after 17 h at 37° C., inoculated at OD600 0.002
Procedure: as §1

E. coli MG1655 = assay: Toxicity of unsulfated or sulfated product: growth rate of E. coli MG1655 (Example 3, FIG. 5); conditions: M9 0.2% glucose, pH 7, 37° C.; pHCA 10-40 mM, zosteric acid 20 or 40 mM
Excerpt: All media preparations had been adjusted to pH 7. […] Filled squares represent growth rates in media with pHCA.

Structure (SMILES) | Optical density at 600 nm ([1]; 2.5 mM ferulic acid) | Optical density at 600 nm ([1]; 5 mM ferulic acid) | Optical density at 600 nm (E. coli BL21(DE3)pLysS; 2.5 mM ferulic acid) | Optical density at 600 nm (E. coli BL21(DE3)pLysS; 5 mM ferulic acid) | Toxicity to the cells (growth rates in exponential growth phase) (E. coli MG1655)
COc1cc(/C=C/C(=O)O)ccc1O [ferulic acid] | 1.410 | 1.340 | 0.680 | 0.370 | 
O=C(O)/C=C/c1ccc(O)cc1 [pHCA, p-coumaric acid] |  |  |  |  | toxic to the cells
O=C(O)/C=C/c1ccc(OS(=O)(=O)O)cc1 [zosteric acid] |  |  |  |  | much less so
